The source of these data is PubChem BioAssay AID588639 (Sanford-Burnham Center for Chemical Genomics, 2011).

Several values for one entry are separate records, joined by “and”; a condition that tells them apart may be missing. Equal values may be shown once. Activity calls are given as the source filed them. The rule behind the calls is not given here.

The test deals with Alkaline phosphatase, tissue-nonspecific isozyme (Homo sapiens) (UniProt P05186). The test is described as follows: inhibition of tissue-nonspecific alkaline phosphatase – biochemical, set 2, selectivity assay for mouse IAP inhibitor project, SAR follow-up (AID 588639). The following applies: purified human TNAP enzyme activity, counter-screen for mouse IAP. Background: A counterscreen serves to expose hits that act by an unwanted route or on another target.
Chain of Alkaline phosphatase, tissue-nonspecific isozyme (Homo sapiens) (P05186 whole entry, looked up): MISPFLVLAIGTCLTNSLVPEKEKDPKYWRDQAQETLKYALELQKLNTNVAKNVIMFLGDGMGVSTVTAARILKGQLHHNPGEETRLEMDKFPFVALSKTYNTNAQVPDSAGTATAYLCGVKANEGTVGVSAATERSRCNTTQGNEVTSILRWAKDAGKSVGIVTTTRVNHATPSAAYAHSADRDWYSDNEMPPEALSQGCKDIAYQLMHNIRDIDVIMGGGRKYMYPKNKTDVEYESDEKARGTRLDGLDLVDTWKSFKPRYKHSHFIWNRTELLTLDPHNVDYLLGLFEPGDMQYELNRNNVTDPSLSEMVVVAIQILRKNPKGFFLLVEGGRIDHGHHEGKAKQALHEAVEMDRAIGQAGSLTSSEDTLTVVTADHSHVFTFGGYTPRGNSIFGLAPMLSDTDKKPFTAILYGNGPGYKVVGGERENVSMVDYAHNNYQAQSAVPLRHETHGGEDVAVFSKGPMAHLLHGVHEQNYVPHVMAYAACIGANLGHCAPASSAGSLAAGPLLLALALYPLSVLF
As usually defined, the IC50 is the concentration that gives 50% inhibition. As to `O=C(CCNS(=O)(=O)c1ccc2[nH]c(=O)oc2c1)Nc1ccc2c(c1)OCO2`, the IC50 is > 100 µM (inactive). `COc1ccc(C(=O)N/N=C/c2ccccc2F)cc1`: the IC50 is > 100 µM (inactive).

With `O=C(NN=Cc1ccccc1F)c1ccc(O)cc1`, the IC50 was > 100 µM (inactive). `COc1cccc(C(=O)N/N=C/c2ccccc2F)c1`: the IC50 was > 100 µM (inactive). With `Cc1ccc(CNC(=O)C2CCCN(S(=O)(=O)c3ccc4[nH]c(=O)oc4c3)C2)cc1` (stereo unspecified), the IC50 was > 100 µM (inactive). On to `O=C(NCc1ccccc1)C1CCCN(S(=O)(=O)c2ccc3[nH]c(=O)oc3c2)C1` (stereo unspecified), for which the IC50 is > 100 µM (inactive). Regarding `COc1ccc(NC(=O)CCCNS(=O)(=O)c2ccc3[nH]c(=O)oc3c2)cc1OC`, the IC50 is > 100 µM (inactive).

In the case of `O=C(N/N=C/c1cc(Br)ccc1F)c1ccc(O)cc1`, the IC50 is > 100 µM (inactive). `O=C(CCS(=O)(=O)Nc1ccc2[nH]c(=O)oc2c1)NCc1cccc(Cl)c1`: the IC50 was > 100 µM (inactive). Regarding `COc1ccc(NC(=O)CCNS(=O)(=O)c2ccc3c(c2)CCC3)cc1OC`, the IC50 was > 100 µM (inactive). For `CCOc1cc(C(=O)N/N=C/c2c(F)cccc2Cl)cc(OCC)c1OCC` the value was > 100 µM (inactive); for `COc1ccc(CNC(=O)CCNS(=O)(=O)c2ccc3[nH]c(=O)oc3c2)c(OC)c1`, > 100 µM (inactive). As for `O=C(CCNS(=O)(=O)c1ccc2[nH]c(=O)oc2c1)NCc1ccc(C(F)(F)F)cc1`, the figure is > 100 µM (inactive); as for `COc1ccc(/C=N/NC(=O)c2cc(O)c(O)c(O)c2)cc1OC`, > 100 µM (inactive). As for `CN(C)c1ccc(CNC(=O)C2CCCN(S(=O)(=O)c3ccc4[nH]c(=O)oc4c3)C2)cc1` (stereo unspecified), the figure is > 100 µM (inactive); as for `CSc1cccc(NC(=O)C2CCCN(S(=O)(=O)c3ccc4c(c3)oc(=O)n4C)C2)c1` (stereo unspecified), > 100 µM (inactive). Regarding `COc1ccc(/C=N\NC(=O)c2cc(O)c(O)c(O)c2)cc1CN1CCN(c2ccc(F)cc2)CC1`, the IC50 is > 100 µM (inactive). On to `O=C(CNS(=O)(=O)c1ccc2[nH]c(=O)oc2c1)NCCc1ccc2c(c1)OCO2`, for which the IC50 was > 100 µM (inactive). With `O=C(CCNS(=O)(=O)c1ccc2[nH]c(=O)oc2c1)NCCc1ccc(O)cc1`, the IC50 was > 100 µM (inactive). For the compound `COc1cc(/C=N/NC(=O)c2cc(O)c(O)c(O)c2)ccc1O`, the IC50 was > 100 µM (inactive). Consider `COc1ccc(CNC(=O)CNS(=O)(=O)c2ccc3[nH]c(=O)oc3c2)cc1`, for which the IC50 was > 100 µM (inactive). Regarding `COc1ccc(NC(=O)CCNS(=O)(=O)c2ccc3[nH]c(=O)oc3c2)cc1OC`, the half-maximal inhibitory concentration (IC50) was 74.4 µM and 65.5 µM. In the case of `COc1cc(C(=O)N/N=C/c2c(F)cccc2Cl)cc(OC)c1OC`, the IC50 was > 100 µM (inactive). For `Cc1ccc(NC(=O)CCNS(=O)(=O)c2ccc3c(c2)oc(=O)n3C)cc1C`, the IC50 was > 100 µM (inactive). With `Cc1ccc(NC(=O)CCNS(=O)(=O)c2ccc3c(c2)oc(=O)n3C)cc1`, the IC50 was > 100 µM (inactive). In the case of `O=C(NCc1ccc(F)cc1)C1CCCN(S(=O)(=O)c2ccc3[nH]c(=O)oc3c2)C1` (stereo unspecified), the IC50 was > 100 µM (inactive). Consider `O=C(CCNS(=O)(=O)c1ccc2c(c1)CCC2)NCCc1ccc2c(c1)OCO2`, for which the IC50 is > 100 µM (inactive). `COc1ccc(CNS(=O)(=O)c2ccc3[nH]c(=O)oc3c2)c(OC)c1`: the IC50 was > 100 µM (inactive). For the compound `Cc1ccc(NC(=O)CCNS(=O)(=O)c2ccc3c(c2)oc(=O)n3C)c(C)c1`, the IC50 was > 100 µM (inactive). Regarding `CC(C)c1ccc(NC(=O)C2CCCN(S(=O)(=O)c3ccc4c(c3)oc(=O)n4C)C2)cc1` (stereo unspecified), the IC50 was > 100 µM (inactive).

Regarding `O=C(CCNS(=O)(=O)c1ccc2[nH]c(=O)oc2c1)NCc1cccc(F)c1`, the IC50 was > 100 µM (inactive).

With `Cc1ccccc1CNC(=O)C1CCCN(S(=O)(=O)c2ccc3[nH]c(=O)oc3c2)C1` (stereo unspecified), the IC50 was > 100 µM (inactive). Take `Cc1ccc(C)c(NC(=O)CCNS(=O)(=O)c2ccc3ccccc3c2)c1`: the IC50 was > 100 µM (inactive).

With `N#Cc1cccc(NS(=O)(=O)c2ccc3[nH]c(=O)oc3c2)c1`, the IC50 was > 100 µM (inactive). As for `CC(=NNC(=O)c1ccccc1OCCOc1ccccc1)c1ccccc1F`, the figure is > 100 µM (inactive); as for `O=C(CCNS(=O)(=O)c1ccc2ccccc2c1)NCCc1ccc2c(c1)OCO2`, > 100 µM (inactive); as for `Cc1ccc(C)c(NC(=O)CCNS(=O)(=O)c2ccc3[nH]c(=O)oc3c2)c1`, > 100 µM (inactive). For `O=C(N/N=C/c1ccc(Cl)c(Cl)c1)c1cc(O)c(O)c(O)c1` the value was > 100 µM (inactive).

Consider `COc1ccc(OC)c(NC(=O)CCNS(=O)(=O)c2ccc3c(c2)oc(=O)n3C)c1`, for which the IC50 is > 100 µM (inactive). In the case of `COc1ccc(CNC(=O)CCNS(=O)(=O)c2ccc3c(c2)CCC3)c(OC)c1`, the IC50 was > 100 µM (inactive). In the case of `CC(C)c1ccc(NC(=O)CCNS(=O)(=O)c2ccc3c(c2)oc(=O)n3C)cc1`, the IC50 is > 100 µM (inactive). In the case of `O=C(CCNS(=O)(=O)c1ccc2[nH]c(=O)oc2c1)NCc1cccc(C(F)(F)F)c1`, the IC50 is > 100 µM (inactive). Turning to `O=C(N/N=C/c1ccccc1F)c1ccccc1OCc1ccccc1`, the IC50 was > 100 µM (inactive). In the case of `COc1cccc(CNS(=O)(=O)c2ccc3[nH]c(=O)oc3c2)c1`, the IC50 was > 100 µM (inactive). Take `COc1ccc(NC(=O)CCCNS(=O)(=O)c2ccc3[nH]c(=O)oc3c2)c(OC)c1`: the IC50 was > 100 µM (inactive). Regarding `CC(C)(C)c1ccc(/C=N/NC(=O)c2cc(O)c(O)c(O)c2)cc1`, the IC50 was > 100 µM (inactive). For `CC(C)c1ccc(/C=N/NC(=O)c2cc(O)c(O)c(O)c2)cc1` the value was > 100 µM (inactive); for `COc1ccc(CNC(=O)CCNS(=O)(=O)c2ccc3[nH]c(=O)oc3c2)cc1`, > 100 µM (inactive); for `O=C(NCc1ccc2c(c1)OCO2)C1CCCN(S(=O)(=O)c2ccc3[nH]c(=O)oc3c2)C1` (stereo unspecified), > 100 µM (inactive). As to `O=C(CCNS(=O)(=O)c1ccc2[nH]c(=O)oc2c1)NCc1ccc(Cl)cc1`, the IC50 was > 100 µM (inactive). On to `O=C(CCNS(=O)(=O)c1ccc2[nH]c(=O)oc2c1)NCCc1ccc2c(c1)OCO2`, for which the IC50 is > 100 µM (inactive).

As for `CCOc1cc(C(=O)N/N=C/c2ccccc2F)cc(OCC)c1OCC`, the IC50 is > 100 µM (inactive). Turning to `COc1ccc(OC)c(NC(=O)C2CCCN(S(=O)(=O)c3ccc4c(c3)oc(=O)n4C)C2)c1` (stereo unspecified), the IC50 was > 100 µM (inactive). `COc1ccc(CNC(=O)CCNS(=O)(=O)c2ccc3ccccc3c2)c(OC)c1`: the IC50 was > 100 µM (inactive). Consider `N#Cc1ccc(NS(=O)(=O)c2ccc3[nH]c(=O)oc3c2)cc1`, for which the IC50 is > 100 µM (inactive). On to `O=C(N/N=C/c1ccc(F)c(Br)c1)c1cc(O)c(O)c(O)c1`, for which the IC50 was > 100 µM (inactive).

With `CCc1ccc(NC(=O)CCNS(=O)(=O)c2ccc3c(c2)oc(=O)n3C)cc1`, the IC50 is > 100 µM (inactive).

For `O=C(N/N=C/c1c(F)cccc1F)c1ccc(O)cc1`, the IC50 is > 100 µM (inactive). Consider `O=C(CCNS(=O)(=O)c1ccc2[nH]c(=O)oc2c1)NCc1ccc2c(c1)OCO2`, for which the IC50 is > 100 µM (inactive). As to `N#Cc1cccc(CNC(=O)CCNS(=O)(=O)c2ccc3[nH]c(=O)oc3c2)c1`, the IC50 is > 100 µM (inactive).

As to `COc1ccc(NS(=O)(=O)c2ccc3[nH]c(=O)oc3c2)cc1OC`, the IC50 was > 100 µM (inactive). As for `Cc1ccc(C)c(NC(=O)C2CCCN(S(=O)(=O)c3ccc4c(c3)oc(=O)n4C)C2)c1` (stereo unspecified), the figure is > 100 µM (inactive); as for `Cc1ccc(C)c(NC(=O)CNS(=O)(=O)c2ccc3[nH]c(=O)oc3c2)c1`, > 100 µM (inactive) and 34.8 µM. As for `O=C(CCNS(=O)(=O)c1ccc2[nH]c(=O)oc2c1)NCc1ccccc1F`, the IC50 was > 100 µM (inactive). As to `COc1ccc(CNC(=O)CCCNS(=O)(=O)c2ccc3[nH]c(=O)oc3c2)c(OC)c1`, the IC50 was > 100 µM (inactive). On to `COc1ccc(/C=N/NC(=O)c2cc(O)c(O)c(O)c2)c(OC)c1`, for which the IC50 was > 100 µM (inactive). For `O=C(CCCNS(=O)(=O)c1ccc2[nH]c(=O)oc2c1)NCCc1ccc(O)cc1`, the IC50 is 74.6 µM.

On to `COc1ccc(CNS(=O)(=O)c2ccc3[nH]c(=O)oc3c2)cc1`, for which the IC50 was > 100 µM (inactive). Turning to `O=C(CCNS(=O)(=O)c1ccc2[nH]c(=O)oc2c1)NCc1ccc(O)c(O)c1`, the IC50 was > 100 µM (inactive).

With `O=C(N/N=C/c1c(Cl)cccc1Cl)c1cc(O)c(O)c(O)c1`, the IC50 is > 100 µM (inactive). Regarding `O=C(N/N=C/c1ccccc1F)c1ccc(O)cc1O`, the IC50 was > 100 µM (inactive). Regarding `N#Cc1ccc(NC(=O)CNS(=O)(=O)c2ccc3[nH]c(=O)oc3c2)cc1`, the IC50 was > 100 µM (inactive) and 81.4 µM.

For `Cc1ccc(C)c(CNC(=O)C2CCCN(S(=O)(=O)c3ccc4[nH]c(=O)oc4c3)C2)c1` (stereo unspecified), the IC50 was > 100 µM (inactive).

Turning to `O=C(CCCNS(=O)(=O)c1ccc2[nH]c(=O)oc2c1)NCc1cccc(F)c1`, the IC50 is 51.4 µM and > 100 µM (inactive). In the case of `O=C(N/N=C/c1c(F)cccc1Cl)c1cc(O)c(O)c(O)c1`, the IC50 is > 100 µM (inactive). `COc1ccc(CNC(=O)CNS(=O)(=O)c2ccc3[nH]c(=O)oc3c2)c(OC)c1`: the IC50 was > 100 µM (inactive). `O=C(N/N=C/c1c(F)cccc1Cl)c1ccc(O)cc1O`: the IC50 is > 100 µM (inactive).

For the compound `O=C(N/N=C/c1ccccc1Cl)c1cc(O)c(O)c(O)c1`, the IC50 is > 100 µM (inactive).

Regarding `Cc1ccc(NC(=O)CCNS(=O)(=O)c2ccc3[nH]c(=O)oc3c2)cc1C`, the IC50 is > 100 µM (inactive). For `O=C(N/N=C/c1ccc(F)cc1F)c1ccc(O)cc1` the value was > 100 µM (inactive); for `Cc1ccc(C)c(NS(=O)(=O)c2ccc3[nH]c(=O)oc3c2)c1`, > 100 µM (inactive).
